The text below walks through data of patent publication US4971983A, “Substituted 2-aminobenzothiazoles and derivatives useful as cerebrovascular agents” (Warner-Lambert Company, priority 1989, dated 1990).

Like-named read-outs stand apart in the source and are kept apart here.

The test system of experiment [1] is MCAO rats. Kind of experiment: Combined Middle Cerebral and Ipsilateral Common Carotid Occlusion in the Rat (MCAO): collateral zone and hemispheric infarct. Conditions: for response vs control in vivo at 3 mg/kg: 3 mg/kg IP; for response vs control in vivo at 15 mg/kg: 15 mg/kg IP. Type of experiment: in vivo, Adult male Fisher (F-344) rats. The source says:
Occlusion of the proximal part of the middle cerebral artery (MCA) is a common cause of stroke in man and can be accomplished surgically in experimental animals. […] We have combined distal MCA occlusion with ipsilateral common carotid ligation in an attempt to produce reproducible,focal cerebral ischemic infarcts.
The skin on the ventral side of the neck and the left temporal-parietal region was shaved. An incision was made in the neck and the left common carotid artery was doubly ligated and cut between the sutures. The incision was closed with 4-0 silk. Another incision was then made behind the left eye and the skin was held back with retractors. The exposed temporalis muscle was electrocauterized (Jarit Bipolar Coagulator) and partially removed. The upper part of the lower jaw bone was also removed. Deep surgery was performed with the aid of a Zeiss OPMI 99 surgical microscope. A 1 to 2-mm diameter craniotomy was made about 1 mm anterior to where the rostral end of the zygoma fuses to the squamosal bone. To prevent the drill from going through the dura, the burr hole was not drilled completely through the skull. Bone remaining after drilling was removed with forceps. The dura was pierced and reflected with a fine probe.
At this point the rat was injected with 0.3 ml of 2% Evans blue dye in saline via the tail vein. Evans blue binds to serum albumin and will not pass the blood-brain barrier unless damage has occurred, such as damage induced by ischemia. A small hook was then positioned under the MCA and the MCA was lifted away from the cortex. A jeweler-type bipolar forceps was introduced and the MCA was electrocauterized and separated. Gelfoam was put over the craniotomy and the wound was closed with 4-0 silk. The rats were then taken off the halothane and were allowed to wake up. Total anesthesia time was typically 30 minutes.
On Day 2 following MCA occlusion, the rats were anesthetized with ketamine (150 mg/kg, IP) and sacrificed. Cerebral tissue fixation was initiated by perfusion of 10% neutralized, buffered formalin for five minutes. Brains were removed and stored in the fixative until analysis.
For evaluation of the extent of cerebral ischemic injury, the brains were cut coronally in three different locations. The first section was at the level where the MCA was ligated. The other two sections were 2 mm anterior and 2 mm posterior to the first. Using an ausJena Citoval microscope with a drawing tube and an Apple II plus computer with a Houston Instrument digitizing pad, a software routine to measure the area of the ischemic damage as indicated by the extent of Evans blue tissue extravasation was employed. The software package was purchased from R&M Biometrics (Nashville, Tenn.) and is titled Bioquant II. From the lesion areas (mm^2) obtained from the Bioquant II program, we estimated the hemispheric extent (mm^3) of ischemic damage between the anterior and posterior sections by computing and adding the volume of two truncated cones.
The Bioquant II image analysis system was used to quantitate ischemic injury as it was identified by Evans blue extravasation.

In experiment [2] the test system is rats. Kind of experiment: Anesthesia in rats after dosing (impaired consciousness, lack of righting reflex; duration). Type of experiment: in vivo, Adult male Fisher (F-344) rats. Conditions: time from administration to regaining consciousness. The source says:
The duration of anesthesia is that time elapsed between administration of the test substance and the test animal regaining consciousness.

The mark [3] stands for this setting: 10 mg/kg IP, 30 min and 24 h after occlusion, historical controls, read-out: Collateral Zone Infarct (% of Control).
Setting [4] is: 10 mg/kg IP, 30 min and 24 h after occlusion, historical controls, read-out: Hemispheric Infarct (% of Control).
The mark [5] stands for this setting: 30 mg/kg IP, 30 min and 24 h after occlusion, historical controls, read-out: Collateral Zone Infarct (% of Control).
[6] abbreviates: 30 mg/kg IP, 30 min and 24 h after occlusion, historical controls, read-out: Hemispheric Infarct (% of Control).
[7] abbreviates: 30 min and 24 h after occlusion, historical controls, read-out: Collateral Zone Infarct (% of Control).
The mark [8] stands for this setting: 30 min and 24 h after occlusion, historical controls, read-out: Hemispheric Infarct (% of Control).
Setting [9] is: ip, read-out: Collateral Zone Infarct (% of Control).
Setting [10] is: ip, read-out: Hemispheric Infarct (% of Control).

Turning to `CSc1ccc2nc(N)sc2c1` [Compound 2, 2-amino-6-methylthiobenzothiazole], the response vs control in vivo at 10 mg/kg in experiment [1] (setting [3]) was 72%; in experiment [1] (setting [4]), 88%. Moreover, the values for the response vs control in vivo at 30 mg/kg in experiment [1] (setting [5]) and in experiment [1] (setting [6]) were 100% and 106%, respectively.

As for `CS(=O)(=O)c1ccc2nc(N)sc2c1` [Compound 4, 2-amino-6-methylsulphonylbenzothiazole], the response vs control in vivo at 10 mg/kg in experiment [1] (setting [3]) worked out at 77%; in experiment [1] (setting [4]), 83%. For the same compound, the response vs control in vivo at 30 mg/kg in experiment [1] (setting [5]) was 58%; in experiment [1] (setting [6]) it was 86%.

Take `CCOc1ccc2nc(N)sc2c1` [Compound 6, 2-amino-6-ethoxybenzothiazole]: the response vs control in vivo at 10 mg/kg came to 94% in experiment [1] (setting [3]) and 115% in experiment [1] (setting [4]). Also, the response vs control in vivo at 30 mg/kg turned out to be 16% in experiment [1] (setting [5]) and 59% in experiment [1] (setting [6]).

Regarding `Nc1nc2ccc(Br)cc2s1` [Compound 7, 2-amino-6-bromobenzothiazole], the response vs control in vivo at 10 mg/kg in experiment [1] (setting [3]) turned out to be 69%; in experiment [1] (setting [4]), 88%. Moreover, the results for the response vs control in vivo at 30 mg/kg in experiment [1] (setting [5]) and in experiment [1] (setting [6]) were 59% and 68%, respectively. In addition, the “Anesthesia (duration)” value in experiment [2] (30 mg/kg IP) was over 5 h.

Turning to `Nc1nc2ccc([N+](=O)[O-])cc2s1` [Compound 8, 2-amino-6-nitrobenzothiazole], the results for the response vs control in vivo at 10 mg/kg in experiment [1] (setting [3]) and in experiment [1] (setting [4]) were 92% and 93%, respectively. Also, the response vs control in vivo at 30 mg/kg in experiment [1] (setting [5]) was found to be 24%; in experiment [1] (setting [6]) it was 62%. Besides, in experiment [2] (30 mg/kg IP), the “Anesthesia (duration)” value came out at 4 h.

As for `Nc1nc2ccc(OC(F)(F)F)cc2s1` [Compound 9, 2-amino-6-trifluoromethoxybenzothiazole], the figures for the response vs control in vivo at 3 mg/kg in experiment [1] (setting [7]) and in experiment [1] (setting [8]) were 117% and 99%, respectively. Besides, the response vs control in vivo at 10 mg/kg in experiment [1] (setting [3]) was found to be 43%; in experiment [1] (setting [4]), 66%. Further, the response vs control in vivo at 15 mg/kg in experiment [1] (setting [7]) is 42%; in experiment [1] (setting [8]), 82%. Also, the response vs control in vivo at 30 mg/kg in experiment [1] (setting [5]) came to 0%; in experiment [1] (setting [6]), 44%. Further, the “Anesthesia (duration)” value in experiment [2] (30 mg/kg IP) is 1 to 2 h.

As to `Nc1nc2ccc(C(F)(F)F)cc2s1` [Compound 10, 2-amino-6-trifluoromethylbenzothiazole], the response vs control in vivo at 3 mg/kg in experiment [1] (setting [7]) amounted to 156%; in experiment [1] (setting [8]), 131%. The response vs control in vivo at 10 mg/kg was 51% in experiment [1] (setting [3]) and 53% in experiment [1] (setting [4]).

Turning to `Cc1cc(C)c2nc(N)sc2c1` [Compound 12, 2-amino-4,6-dimethylbenzothiazole], the response vs control in vivo at 10 mg/kg was 91% in experiment [1] (setting [3]) and 79% in experiment [1] (setting [4]). For the same compound, the response vs control in vivo at 30 mg/kg in experiment [1] (setting [5]) worked out at 68%; in experiment [1] (setting [6]), 76%.

Take `COc1cccc2sc(N)nc12` [Compound 13, 2-amino-4-methoxybenzothiazole]: the figures for the response vs control in vivo at 3 mg/kg in experiment [1] (setting [7]) and in experiment [1] (setting [8]) were 85% and 90%, respectively. In addition, the figures for the response vs control in vivo at 10 mg/kg in experiment [1] (setting [3]) and in experiment [1] (setting [4]) were 115% and 121%, respectively. Besides, in experiment [2] (10 mg/kg IP), the “Anesthesia (duration)” value is over 5 h.

Consider `Cc1cccc2sc(N)nc12` [Compound 14, 2-amino-4-methylbenzothiazole], for which the response vs control in vivo at 10 mg/kg in experiment [1] (setting [3]) worked out at 69%; in experiment [1] (setting [4]) it was 72%. Besides, the response vs control in vivo at 30 mg/kg is 40% in experiment [1] (setting [5]) and 54% in experiment [1] (setting [6]).

On to `Nc1nc2c(C(F)(F)F)cccc2s1` [Compound 16, 2-amino-4-trifluoromethylbenzothiazole], for which the figures for the response vs control in vivo at 10 mg/kg in experiment [1] (setting [3]) and in experiment [1] (setting [4]) were 63% and 99%, respectively. Further, the response vs control in vivo at 30 mg/kg in experiment [1] (setting [5]) turned out to be 15%; in experiment [1] (setting [6]) it was 61%.

Take `Nc1nc2c(F)cc(F)cc2s1` [Compound 17, 2-amino-4,6-difluorobenzothiazole]: the response vs control in vivo at 10 mg/kg in experiment [1] (setting [3]) amounted to 137%; in experiment [1] (setting [4]), 139%. In addition, the response vs control in vivo at 30 mg/kg in experiment [1] (setting [5]) amounted to 105%; in experiment [1] (setting [6]), 115%.

As for `COc1ccc2sc(N)nc2c1` [Compound 18, 2-amino-5-methoxybenzothiazole], in experiment [1] (setting [9]), the response vs control in vivo at 10 mg/kg amounted to 124% and the response vs control in vivo at 30 mg/kg stood at 54%. Moreover, in experiment [1] (setting [10]), the response vs control in vivo at 10 mg/kg is 117% and the response vs control in vivo at 30 mg/kg is 82%.

Turning to `Nc1nc2cc(C(F)(F)F)ccc2s1` [Compound 19, 2-amino-5-trifluoromethylbenzothiazole], the figures for the response vs control in vivo at 10 mg/kg in experiment [1] (setting [3]) and in experiment [1] (setting [4]) were 48% and 63%, respectively. Moreover, the response vs control in vivo at 30 mg/kg in experiment [1] (setting [5]) came to 53%; in experiment [1] (setting [6]), 79%.

Take `Nc1nc2c(ccc3ccccc32)s1` [Compound 20, 2-amino-naptho[1,2-d]thiazole]: the response vs control in vivo at 10 mg/kg in experiment [1] (setting [3]) amounted to 63%; in experiment [1] (setting [4]) it was 84%. The response vs control in vivo at 30 mg/kg came out at 81% in experiment [1] (setting [5]) and 92% in experiment [1] (setting [6]).

With `CCNc1nc2ccccc2s1` [Compound 21, 2-ethylaminobenzothiazole], the response vs control in vivo at 10 mg/kg in experiment [1] (setting [3]) turned out to be 62%; in experiment [1] (setting [4]) it was 71%. The response vs control in vivo at 30 mg/kg is 116% in experiment [1] (setting [5]) and 89% in experiment [1] (setting [6]).

On to `c1ccc(CNc2nc3ccccc3s2)cc1` [Compound 22, N-benzyl-2-benzothiazolamine], for which the response vs control in vivo at 10 mg/kg was 56% in experiment [1] (setting [3]) and 76% in experiment [1] (setting [4]). In addition, the results for the response vs control in vivo at 30 mg/kg in experiment [1] (setting [5]) and in experiment [1] (setting [6]) were 98% and 89%, respectively.

As for `CN1CCCC1CCNc1nc2ccccc2s1` (centres unmarked) [Compound 23, 2-[[2-(1-methyl-2-pyrrolidinyl)ethyl]amino]-benzothiazole], the values for the response vs control in vivo at 10 mg/kg in experiment [1] (setting [3]) and in experiment [1] (setting [4]) were 66% and 84%, respectively. The values for the response vs control in vivo at 30 mg/kg in experiment [1] (setting [5]) and in experiment [1] (setting [6]) were 18% and 72%, respectively.
